Key:
Assay in all cases: Modified disk diffusion method (chemicals)
Format in all cases: cell-based
Pseudomonas aeruginosa = details: disc diffusion on Nutrient Agar, 24 hours at 36±1 °C, PC = ofloxacin 10 μg/disc
Protocol: (§1) Modified disk diffusion method: Standard NCCLS disc diffusion method was used upon being modified in order to determine the antimicrobial activity of CG, T and ZP on each microorganism that is being tested. The 100 μl solution including 10^8 cfu/ml bacteria, 10^6 cfu/ml yeast and 10^4 spor/ml fungi was prepared with fresh cultures and inoculated with spreading method on Nutrient Agar (NA), Sabouraud Dextrose Agar (SDA) and Potato Dextrose Agar (PDA), respectively. 20 μl of sterile water was dropped on the empty discs, and was immersed into powder triclosan. 20 μl of chlorhexidine gluconate and zinc pyrithione were drawn and impregnated to the empty discs and placed on the inoculated petri dishes. Empty discs with 20 μl drop of sterile water were used as negative control. Ofloxacin (10 μg/disc) and nystatin (30 μg/disc) were used as positive control for bacteria and fungi, respectively. The petri dishes, which were inoculated and on which modified disc diffusion method was applied, were incubated for 24 hours for bacteria and 48 hours for yeasts at 36±1 ° C., and for 72 hours for fungi at 25±1 ° C. […] All tests were repeated at least twice.

Staphylococcus aureus = details: disc diffusion on Nutrient Agar, 24 hours at 36±1 °C, PC = ofloxacin 10 μg/disc
Protocol: as §1

Botrytis cinerea = details: disc diffusion on Potato Dextrose Agar, 72 hours at 25±1 °C, PC = nystatin 30 μg/disc
Protocol: as §1

Aspergillus spp. = details: disc diffusion on Potato Dextrose Agar, 72 hours at 25±1 °C, PC = nystatin 30 μg/disc
Protocol: as §1

[1] = system: Methicillin-resistant Staphylococcus aureus (MRSA); details: disc diffusion on Nutrient Agar, 24 hours at 36±1 °C, PC = ofloxacin 10 μg/disc
Protocol: as §1

Candida albicans = details: disc diffusion on Sabouraud Dextrose Agar, 48 hours at 36±1 °C, PC = nystatin 30 μg/disc
Protocol: as §1

Escherichia coli = details: disc diffusion on Nutrient Agar, 24 hours at 36±1 °C, PC = ofloxacin 10 μg/disc
Protocol: as §1

Penicillium spp. = details: disc diffusion on Potato Dextrose Agar, 72 hours at 25±1 °C, PC = nystatin 30 μg/disc
Protocol: as §1

Fusarium oxysporum = details: disc diffusion on Potato Dextrose Agar, 72 hours at 25±1 °C, PC = nystatin 30 μg/disc
Protocol: as §1

[2] = system: Vancomycin-resistant Enterococcus (VRE); details: disc diffusion on Nutrient Agar, 24 hours at 36±1 °C, PC = ofloxacin 10 μg/disc
Protocol: as §1

Candida glabrata = details: disc diffusion on Sabouraud Dextrose Agar, 48 hours at 36±1 °C, PC = nystatin 30 μg/disc
Protocol: as §1

Row | Molecule | Antimicrobial activity (inhibition zone) (Pseudomonas aeruginosa) | Antimicrobial activity (inhibition zone) (Staphylococcus aureus) | Antimicrobial activity (inhibition zone) (Botrytis cinerea) | Antimicrobial activity (inhibition zone) (Aspergillus spp.) | Antimicrobial activity (inhibition zone) [1] | Antimicrobial activity (inhibition zone) (Candida albicans) | Antimicrobial activity (inhibition zone) (Escherichia coli) | Antimicrobial activity (inhibition zone) (Penicillium spp.) | Antimicrobial activity (inhibition zone) (Fusarium oxysporum) | Antimicrobial activity (inhibition zone) [2] | Antimicrobial activity (inhibition zone) (Candida glabrata)
1 | Zinc Pyrithione [ZP] | + | + | + | + | + | + | + | + | + | + | +
2 | Oc1cc(Cl)ccc1Oc1ccc(Cl)cc1Cl [T, Triclosan] | + | + | − | − | + | − | + | − | − | + | −
3 | N=C(NCCCCCCNC(=N)NC(=N)Nc1ccc(Cl)cc1)NC(=N)Nc1ccc(Cl)cc1.O=C(O)[C@H](O)[C@@H](O)[C@H](O)[C@H](O)CO.O=C(O)[C@H](O)[C@@H](O)[C@H](O)[C@H](O)CO [CG, Chlorhexidine gluconate] | + | + | + | + | + | + | + | + | + | + | +

Reference: US20190075791A1, “ANTIMICROBIAL SURFACE COATING MATERIAL” (YEDITEPE UNIVERSITESI, priority 2015, published 2019)
